Data on 27 molecules can be found in US10844044B2 (Vanderbilt University, priority 2018, dated 2020).

Each structure is given as a SMILES string.

In one assay the target is WDR5 (Homo sapiens (Human), UniProt P61964). Put plainly: TR-FRET binding assay (displacement of 10mer-Thr-FAM probe from WDR5).
Settings: not given
For orientation: Time-resolved FRET reads energy transfer from a long-lived donor to a nearby acceptor.
With `COc1cccc(-c2cc(Cn3ccn(C)c3=N)cc(C(=O)NCc3ccc(Cl)c(Cl)c3)c2)n1` [Example 169, N-(3,4-Dichlorobenzyl)-3-((2-imino-3-methyl-2,3-dihydro-1H-imidazol-1-yl)methyl)-5-(6-methoxypyridin-2-yl)benzamide], the Ki came out at 23000 pM.

The assay is the same for the next values; noted with them: read-out: Ki for Inhibition of WDR5 by TR-FRET assay.
As to `Cc1cc([C@H](C)NC(=O)c2cc(Cn3ccn(C)c3=N)cc(OC(F)(F)F)c2)ccc1F` [Example 170, (S)—N-(1-(4-Fluoro-3-methylphenyl)ethyl)-3-((2-imino-3-methyl-2,3-dihydro-1H-imidazol-1-yl)methyl)-5-(trifluoromethoxy)benzamide], the inhibition constant Ki turned out to be 220 pM.
On the same count and under the same terms, the same measure for `CCn1cc(-c2cc(Cn3ccn(C4CC4)c3=N)cc(C(=O)NCc3ccc(F)c(C)c3)c2)c(C(F)(F)F)n1` [Example 197, 3-((3-Cyclopropyl-2-imino-2,3-dihydro-1H-imidazol-1-yl)methyl)-5-(1-ethyl-3-(trifluoromethyl)-1H-pyrazol-4-yl)-N-(4-fluoro-3-methylbenzyl)benzamide]: below 100 pM.
In the case of `Cc1cc([C@@H](NC(=O)c2cc(Cn3c(C)coc3=N)cc(-c3cccnc3C(F)(F)F)c2)C2CC2)ccc1F` [Example 252, (S)—N-(Cyclopropyl(4-fluoro-3-methylphenyl)methyl)-3-((2-imino-4-methyloxazol-3(2H)-yl)methyl)-5-(2-(trifluoromethyl)pyridin-3-yl)benzamide], the Ki is 21000 pM.

Still in this assay, the particulars now being: read-out: Ki for Inhibition of WDR5 by TR-FRET assay; TR-FRET, 10mer-Thr-FAM probe, WDR5-His tag 2 nM, pH 7.0.
`N=c1n(Cc2cc(C(=O)N[C@H](c3ccc(Cl)c(Cl)c3)C3CC3)cc(-c3cccnc3C(F)(F)F)c2)ccn1C1CC1` [Example 155, (S)—N-(Cyclopropyl(3,4-dichlorophenyl)methyl)-3-((3-cyclopropyl-2-imino-2,3-dihydro-1H-imidazol-1-yl)methyl)-5-(2-(trifluoromethyl)pyridin-3-yl)benzamide]: the Ki worked out at 1400 pM.
Still for that read-out and setting: next, `Cc1cc([C@@H](NC(=O)c2cc(Cn3ccn(C4CC4)c3=N)cc(-c3cn(CC(C)C)nc3C(F)(F)F)c2)C2CC2)ccc1F` [Example 163, (S)—N-(Cyclopropyl(4-fluoro-3-methylphenyl)methyl)-3-((3-cyclopropyl-2-imino-2,3-dihydro-1H-imidazol-1-yl)methyl)-5-(1-isobutyl-3-(trifluoromethyl)-1H-pyrazol-4-yl)benzamide]: 680 pM.
The same measure, in the same setting: next, `Cc1cc([C@@H](NC(=O)c2cc(Cn3ccn(C)c3=N)cc(-c3cn(CC(C)C)nc3C(F)(F)F)c2)C2CC2)ccc1F` [Example 165, (S)—N-(Cyclopropyl(4-fluoro-3-methylphenyl)methyl)-3-((2-imino-3-methyl-2,3-dihydro-1H-imidazol-1-yl)methyl)-5-(1-isobutyl-3-(trifluoromethyl)-1H-pyrazol-4-yl)benzamide]: 140 pM; `Cc1cc(F)ccc1-c1cc(Cn2ccn(C)c2=N)cc(C(=O)N[C@@H](c2ccc(F)c(C)n2)C2CC2)c1` [Example 167, (R)—N-(Cyclopropyl(5-fluoro-6-methylpyridin-2-yl)methyl)-4′-fluoro-5-((2-imino-3-methyl-2,3-dihydro-1H-imidazol-1-yl)methyl)-2′-methyl-[1,1′-biphenyl]-3-carboxamide]: 210 pM; `Cn1ccn(Cc2cc(C(=O)NCc3ccc(Cl)c(Cl)c3)cc(-c3cccc4c3OC(F)(F)O4)c2)c1=N` [Example 168, N-(3,4-Dichlorobenzyl)-3-(2,2-difluorobenzo[d][1,3]dioxol-4-yl)-5-((2-imino-3-methyl-2,3-dihydro-1H-imidazol-1-yl)methyl)benzamide]: 27000 pM.
The same measure, in the same setting: the same measure for `Cc1cc(F)ccc1-c1cc(Cn2ccn(C)c2=N)cc(C(=O)N[C@H](c2ccc(F)c(C)n2)C2CC2)c1` [Example 173, (S)-1N-(Cyclopropyl(5-fluoro-6-methylpyridin-2-yl)methyl)-4′-fluoro-5-((2-imino-3-methyl-2,3-dihydro-1H-imidazol-1-yl)methyl)-2′-methyl-[1,1′-biphenyl]-3-carboxamide]: 890 pM; for `CCOc1cc(Cn2ccn(C)c2=N)cc(C(=O)N[C@@H](C)c2ccc(F)c(C)c2)c1` [Example 176, (S)-3-Ethoxy-N-(1-(4-fluoro-3-methylphenyl)ethyl)-5-((2-imino-3-methyl-2,3-dihydro-1H-imidazol-1-yl)methyl)benzamide]: 500 pM.
As for `COc1cc(CNC(=O)c2cc(Cn3ccn(C)c3=N)cc(OCC3CC3)c2)cc(OC)c1` [Example 178, 3-(Cyclopropylmethoxy)-N-(3,5-dimethoxybenzyl)-5-((2-imino-3-methyl-2,3-dihydro-1H-imidazol-1-yl)methyl)benzamide], the Ki is 3300 pM.
Same read-out and setting: the same measure for `CCOc1cc(Cn2ccn(C)c2=N)cc(C(=O)N[C@H](c2ccc(F)c(C)c2)C2CC2)c1` [Example 180, (S)—N-(Cyclopropyl(4-fluoro-3-methylphenyl)methyl)-3-methoxy-5-((2-imino-3-methyl-2,3-dihydro-1-imidazol-1-yl)methyl)benzamide]: 130 pM; for `Cc1cc([C@H](C)NC(=O)c2cc(Cn3ccn(C)c3=N)cc(OCC3CC3)c2)ccc1F` [Example 181, (S)-3-(Cyclopropylmethoxy)-N-(1-(4-fluoro-3-methylphenyl)ethyl)-5-((2-imino-3-methyl-2,3-dihydro-1H-imidazol-1-yl)methyl)benzamide]: 350 pM; for `Cc1ccnc([C@@H](NC(=O)c2cc(Cn3ccn(C)c3=N)cc(OCC3CC3)c2)C2CC2)c1` [Example 182, (S)—N-(Cyclopropyl(4-methylpyridin-2-yl)methyl)-3-(cyclopropylmethoxy)-5-((2-imino-3-methyl-2,3-dihydro-1H-imidazol-1-yl)methyl)benzamide]: 1000 pM.
On the same count and under the same terms, the same measure for `CCOc1cc(Cn2ccn(C)c2=N)cc(C(=O)NCc2ccc(Cl)c(C)c2)c1` [Example 183, N-(4-Chloro-3-methylbenzyl)-3-ethoxy-5-((2-imino-3-methyl-2,3-dihydro-1H-imidazol-1-yl)methyl)benzamide]: 710 pM; for `COc1cc(-c2cc(Cn3ccn(C)c3=N)cc(C(=O)NCc3ccc(Cl)c(Cl)c3)c2)c(F)cn1` [Example 184, N-(3,4-dichlorobenzyl)-3-(5-fluoro-2-methoxypyridin-4-yl)-5-((2-imino-3-methyl-2,3-dihydro-1H-imidazol-1-yl)methyl)benzamide]: 560 pM; for `Cc1cc([C@@H](NC(=O)c2cc(Cn3ccn(C)c3=N)cc(N3CCCC3)c2)C2CC2)ccc1F` [Example 206, (S)—N-(Cyclopropyl(4-fluoro-3-methylphenyl)methyl)-3-((2-imino-3-methyl-2,3-dihydro-1H-imidazol-1-yl)methyl)-5-(pyrrolidin-1-yl)benzamide]: 340 pM.
Still for that read-out and setting: next, `Cc1cc([C@@H](NC(=O)c2cc(Cn3ccn(C)c3=N)cc(N3CCCC3)c2)C2CC2)ncc1F` [Example 208, (S)—N-(Cyclopropyl(5-fluoro-4-methylpyridin-2-yl)methyl)-3-((2-imino-3-methyl-2,3-dihydro-1H-imidazol-1-yl)methyl)-5-(pyrrolidin-1-yl)benzamide]: 590 pM.
In the case of `Cc1cc([C@@H](NC(=O)c2cc(Cn3ccn(C)c3=N)cc(C3(C(F)(F)F)CC3)c2)C2CC2)ncc1F` [Example 218, (S)—N-(cyclopropyl(5-fluoro-4-methylpyridin-2-yl)methyl)-3-((2-imino-3-methyl-2,3-dihydro-1H-imidazol-1-yl)methyl)-5-(1-(trifluoromethyl)cyclopropyl)benzamide], the inhibitory constant (Ki) was below 100 pM.
Take `Cc1cc([C@@H](NC(=O)c2cc(Cn3ccn(C)c3=N)cc(N3CCC[C@@H]3C(F)(F)F)c2)C2CC2)ccc1F` [Example 222, N—((S)-Cyclopropyl(4-fluoro-3-methylphenyl)methyl)-3-((2-imino-3-methyl-2,3-dihydro-1H-imidazol-1-yl)methyl)-5-((R)-2-(trifluoromethyl)pyrrolidin-1-yl)benzamide]: the inhibition constant Ki stood at 330 pM.
Still for that read-out and setting: the same measure for `Cc1cc([C@@H](NC(=O)c2cc(Cn3ccn(C)c3=N)cc(N3CCC[C@H]3C(F)(F)F)c2)C2CC2)ccc1F` [Example 223]: 1300 pM; for `Cc1cc([C@@H](NC(=O)c2cc(Cn3ccn(C)c3=N)cc(-n3ccnc3C)c2)C2CC2)ccc1F` [Example 224, (S)—N-(Cyclopropyl(4-fluoro-3-methylphenyl)methyl)-3-((2-imino-3-methyl-2,3-dihydro-H-imidazol-1-yl)methyl)-5-(2-methyl-1H-imidazol-1-yl)benzamide]: 140 pM; for `CCn1cc(-c2cc(Cn3ccn(C)c3=N)cc(C(=O)N[C@H](c3ccc(F)c(C)c3)C3CC3)c2)c(C)n1` [Example 225, (S)—N-(Cyclopropyl(4-fluoro-3-methylphenyl)methyl)-3-(1-ethyl-3-methyl-1H-pyrazol-4-yl)-5-((2-imino-3-methyl-2,3-dihydro-1H-imidazol-1-yl)methyl)benzamide]: below 100 pM.
Regarding `Cc1cc([C@@H](NC(=O)c2cc(Cn3ccn(C)c3=N)cc(N3CCC[C@H]3C)c2)C2CC2)ccc1F` [Example 226, N—((S)-Cyclopropyl(4-fluoro-3-methylphenyl)methyl)-3-((2-imino-3-methyl-2,3-dihydro-1H-imidazol-1-yl)methyl)-5-((R)-2-methylpyrrolidin-1-yl)benzamide], the inhibitory constant (Ki) is 7100 pM.
Same read-out and setting: the same measure for `Cc1ccnc(C(NC(=O)c2cc(Cn3ccoc3=N)cc(-c3ncccc3C(F)(F)F)c2)C2CC2)c1` (stereo not drawn) [Example 237, N-(Cyclopropyl(4-methylpyridin-2-yl)methyl)-3-((2-iminooxazol-3(2H)-yl)methyl)-5-(3-(trifluoromethyl)pyridin-2-yl)benzamide]: 7500 pM; for `Cc1cc([C@@H](NC(=O)c2cc(Cn3ccoc3=N)cc(-c3cncnc3C(F)(F)F)c2)C2CC2)ccc1F` [Example 255, (S)—N-(Cyclopropyl(4-fluoro-3-methylphenyl)methyl)-3-((2-iminooxazol-3(2H)-yl)methyl)-5-(4-(trifluoromethyl)pyrimidin-5-yl)benzamide]: 620 pM.

As usually defined, the Ki is a measure of affinity in units of concentration, obtained from inhibition or displacement.
